What all share (assay): NCI tumour cell line growth inhibition, 48 h
In assay [1] the test system is OVCAR-4 ovarian.
In assay [2] the test system is SK-OV-3 ovarian.
The subject of assay [3] is MCF7 breast.
Assay [4] deals with 786-0 renal.
Assay [5] relates to NCI-H23 lung.
The test system of assay [6] is A498 renal.
Assay [7] deals with OVCAR-3 ovarian.
Assay [8] has as its system K-562 leukemia.
Assay [9] concerns BT-549 breast.
Assay [10] has as its system A549 NSCLC.
Assay [11] relates to UACC-257 melanoma.
In assay [12] the test system is UO-31 renal.
Assay [13] deals with SR leukemia.
For assay [14], the system named is HL-60(TB) leukemia.
Assay [15] has as its system NCI-H226 lung.

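Five concentrations, 48 hours, 96-well plates. The concentration for full growth arrest is given as TGI.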

As for `CCC1OC2C(CC=C(C)C)=C3OC(C)(O)C(C)(CC)C(OC(C)=O)C3=C3OC(=O)C=C1C32` (configuration not stated), the TGI was 70.5 µM in assay [1]; more than 100 µM in assay [2]; more than 100 µM in [3]; more than 100 µM in [4]; 75.5 µM in [5]; more than 100 µM in assay [6]. Further, the TGI was more than 100 µM in [7]; more than 100 µM in assay [8]; 42.9 µM in [9]; more than 100 µM in [10]; 53.7 µM in assay [11]; 62.2 µM in [12]. Besides, the TGI in [13] and in [14] was more than 100 µM throughout.
`CCOC(=O)c1nc2cc(C(F)(F)F)ccc2nc1Nc1ccc(OC)cc1`: the TGI in assay [3], in [4], in assay [5], in assay [6], in assay [7] and in assay [9] was more than 100 µM each time. Besides, the TGI in assay [10], in assay [11], in [15], in assay [12], in assay [13] and in [14] was more than 100 µM throughout.
On to `CC(=O)Oc1ccc(/C=C/C(=O)OCCCOC(=O)/C=C/c2ccc(OC(C)=O)c(OC(C)=O)c2)cc1OC(C)=O`, for which the TGI in assay [1], in [2], in assay [3], in assay [4], in [5] and in assay [6] was more than 100 µM in each case. For the same molecule, the TGI in assay [7], in assay [8], in assay [9], in assay [10], in assay [11] and in assay [12] was more than 100 µM each time. The TGI in assay [13] was more than 100 µM; in assay [14] it was 18.2 µM.
Take `Nc1ccc2c(c1)nc1n2C(c2c(F)cccc2F)SC1` (configuration not stated): the TGI in [1], in [2], in assay [3], in assay [4], in assay [5] and in [6] was more than 100 µM in each case. Further, the TGI in assay [7], in [8], in assay [9], in assay [10], in assay [11] and in [12] was more than 100 µM throughout. Moreover, the TGI in [13] and in assay [14] was more than 100 µM in each case.
Take `CCc1c(C)c(C#N)c(=S)n(C2OC(COC(C)=O)C(OC(C)=O)C(OC(C)=O)C2OC(C)=O)c1-c1ccccc1` (configuration not stated): the TGI in assay [1], in assay [3], in [4], in [5], in [6] and in assay [7] was more than 31.6 µM in each case. Also, the TGI was 47.2 µM in assay [8]; more than 100 µM in assay [9]; more than 31.6 µM in [10]; more than 31.6 µM in assay [11]; more than 31.6 µM in assay [15]; more than 31.6 µM in assay [12]. Also, the TGI in assay [13] was more than 31.6 µM; in assay [14], more than 100 µM.
Regarding `NS(=O)(=O)c1nnc(NS(=O)(=O)C(F)(F)F)s1`, the TGI in assay [1], in [2], in [3], in assay [4], in [5] and in assay [6] was more than 100 µM in each case. The TGI in [7], in assay [8], in [9], in [10], in [15] and in [12] was more than 100 µM throughout. For the same molecule, the TGI in assay [13] and in [14] was more than 100 µM in each case.
Consider `O=c1[nH]c(=S)nc2nc3c4ccc[nH]c4c4ccccc4c3nc12`, for which the TGI in assay [1], in assay [2], in assay [3], in assay [4], in [5] and in [6] was more than 100 µM throughout. The TGI in [7], in assay [9], in assay [10], in assay [11], in assay [12] and in assay [13] was more than 100 µM each time. In assay [14], the TGI came to 66.1 µM.
Take `CCC(=O)C(CCN1CCC2(CCCc3ccccc32)CC1)(c1ccccc1)c1ccccc1`: the TGI came out at 18.7 µM in assay [1]; 18.2 µM in [2]; 10.9 µM in assay [3]; 6.09 µM in assay [4]; 5.45 µM in [5]; 6.11 µM in [6]. Besides, the TGI in assay [7] came to 6.67 µM; in assay [9], 3.36 µM; in [10], 15.6 µM; in assay [11], 5.51 µM; in assay [15], 6.58 µM; in assay [12] it was 8.66 µM. In addition, the figures for the TGI in assay [13] and in assay [14] were 5.9 µM and 5.12 µM, respectively.
On to `CCOC(=O)C1(C(=O)OCC)[C@@H](c2ccccc2)C2=NO[C@@H]3CCC[C@H]1[C@H]23`, for which the TGI in [1], in assay [2], in assay [3], in assay [4], in assay [5] and in assay [7] was more than 100 µM each time. The TGI was more than 100 µM in [8]; more than 100 µM in assay [9]; more than 100 µM in assay [10]; 79.8 µM in assay [11]; more than 100 µM in [15]; more than 100 µM in assay [12]. The TGI in assay [13] and in assay [14] was more than 100 µM throughout.
As to `CC1(C)OCC([C@H]2O[C@@H](CC(=S)NCCCCCCCCCCCCNC(=S)C[C@H]3O[C@@H](C4COC(C)(C)O4)[C@H]4OC(C)(C)O[C@H]43)[C@H]3OC(C)(C)O[C@H]32)O1` (some centres not stated), the TGI in assay [1], in assay [3], in assay [4], in assay [5], in assay [6] and in [7] was more than 100 µM throughout. Moreover, the TGI in [8] was more than 100 µM; in [9], more than 100 µM; in assay [10], more than 100 µM; in assay [11], more than 100 µM; in assay [15], more than 100 µM; in [12], 95 µM. In addition, the TGI in assay [13] and in assay [14] was more than 100 µM throughout.
